Key:
WT 5-12 G-quadruplex = assay: CD kinetics, temperature-jump, WT; assay type: biochemical, human; details: 2 equiv
Procedure: FIGS. 10A and 10B are a set of graphs showing (A) comparison of kinetics of initial folding rate of the WT 5-12 G-quadruplex with GTC365 and BRACO-19 by the temperature-jump method. (B) Enhanced initial folding rate of the 5-12 G-quadruplexes carrying different hTERT mutants by GTC365. The time-course CD signal of preheated oligo with compound or DMSO in a buffer containing 10 mM Tris-HCl (pH 7.5) and 5 mM KCl was monitored at 262 nm and 25° C.
For the kinetics analysis using the temperature-jump method, theoligo in a buffer containing 10 mM Tris-HCl (pH 7.5) was heated forl min at 95° C., and then a mixture of KCl and compound was addedand incubated for 1 min. Meanwhile, the CD cuvette was also heatedat 95° C. As soon as the sample in the CD cuvette at the hightemperature was placed in the CD chamber, a time-dependent CDsignal at 262 nm was recorded immediately. The initial folding ratewas determined by one-phase association curve fitting (eq 1) of thekinetics curve using GraphPad Prism 5: Y=Y0+(Plateau−Y0)*(1−e^−kx) (1) where Y is the CD signal at any time point x, Y0 is the Y value whentime (x) is zero, plateau is the Y value at infinite time, and k is the rateconstant.
To evaluate the comparative effects of GTC365 relative to BRACO-19 on the cooperative folding process, we carried out two different experiments. First, we compared the distribution of the different populations of small and large species using single-molecule experiments as described previously withGTC365 and BRACO-19 in the G138/139A mutant. Similar to the G124/125A mutant, the population of fully folded structures is small in the G138/139A mutant without addition of ligand. […] We then used a temperature-jump method84to compare the initial folding rate of the 5-12 WT G-quadruplex with GTC365 and BRACO-19 using a time-course CD signal curve. […] GTC365 alsoincreased the initial folding rates of G124A, G124/125A, andG146A in a dose-dependent manner by 0.049, 0.042, and 0.054s^−1 at 2 equiv, whereas the effect on the G138/139A mutant was insignificant (FIG. 10B). […]

[1] = system: G138/139A mutant hTERT 5-12 fragment; assay: Single-molecule laser tweezer unfolding, G138/139A mutant; assay type: biochemical, human; details: 2 μM
Procedure: Single-molecule tweezer. Preparation of the DNA construct. The DNA construct that contains the single-stranded hTERT 5-12 fragment was prepared by sandwiching the target sequence between two double-stranded DNA handles. Five deoxythymidines were added at both ends of the hTERT 5-12 fragment to reduce the interference from the double-stranded DNA handles on the target sequence. Briefly, the 2690-base-pair double-stranded DNA handle was prepared through restriction enzyme digestion of the pEGFP vector (Clontech, Mountain View, Calif.). In the first step, the vector was digested by Sad and Eagl restriction enzymes, followed by purification with agarose gel. The EagI end of the DNA fragment was labeled with digoxigenin using terminal deoxynucleotidyl transferase. […]
Single-molecule force-ramp assay. […] After this, the two beads were moved apart to increase the tension on the DNA tether with a loading rate of 5.5 pN/s, and the force-extension (F-X) curves were recorded using the LabVIEW program (National Instruments Corp., Austin, Tex.).
The F-X curves were filtered by Savitzky-Golay function with a 10 ms time constant in the MATLAB program (The Math Works, Natick, Mass.). […] The change-in-contour length (ΔL) was calculated based on the Δx through the worm-like chain model (equation 1). […]

Structure (SMILES)	increase of initial folding rate (WT 5-12 G-quadruplex)	population of fully folded structures [1]	initial folding rate (WT 5-12 G-quadruplex; without compound 0.051, 5 mM KCl, 25° C.)
CN(C)c1ccc(Nc2c3ccc(NC(=O)CCN4CCCC4)cc3nc3cc(NC(=O)CCN4CCCC4)ccc23)cc1 [BRACO-19, reference compound]	0.017 s⁻¹	minimallypromoted the fully folded structure	
N=C(N)NCCCS(=O)(=O)Nc1ccc(Nc2c3ccccc3nc3cc([N+](=O)[O-])ccc23)cc1 [GTC365]	0.042 s⁻¹	significantly recovered	0.093 s⁻¹
